Values joined by “and” are separate entries in the source; they are usually repeats but may differ in a detail not shown here. Identical values can stand only once. Like-named read-outs stand apart in the source and are kept apart here.
Tests used:
[1] = system: K30 polysaccharide transport through Wza; experiment: Inhibition of K30 polysaccharide transport through Wza, phenol extraction and carbohydrate staining; assay type: cell-based, E. coli strain E69
Procedure: The inhibitory effect of am8γCD, am7βCD and am6αCD were tested on live bacteria (E. coli strain E69) with K30 capsular polysaccharide (CPS) and Wza as its transporter. Isolation and staining of the polysaccharides was used. Phenol extraction was carried out in accordance with Orskov (Eur. J. Biochem.; 1980, Stirm, J. Bacteriol. 1967) to isolate the capsular polysaccharide (CPS) and lipopolysaccharide (LPS), followed by carbohydrate staining Pro-Q Emerald 300 glycoprotein stain kit (Molecular Probes) was used for staining of both the CPS and LPS. The staining time, loading volume, oxidation time and washing time after staining were optimised and the following conditions used in the assay:
Loading volume: 3 μL of the stock aqueous polysaccharide solution (see below), mixed with 3 μL of the Laemmli sample buffer (1 mL, Bio-Rad) mixed with 2-mercaptoethanol (950 microliter:50 microliter) before use;
Oxidation time: 30 minutes
Further details of the microbiology and the staining procedures used are as follows: The strains were grown in the absence of or the presence of various concentrations of am8γCD overnight in M9 minimal medium until OD reached ˜0.5. Cells were collected by centrifugation of the culture at 2583×g for 20 minutes at 4° C. In the phenol extraction, volume of phenol/buffer (20 mM Tris.-HCl, 2 mM MgCl2, 20 mM NaCl, pH 8.0) to each tube with a cell pellet is calculated as OD*667 μL. […] By doing this, the cell concentration in each sample was identical so that the changes in CPS and LPS quantity of each cell on average could be compared quantitatively.
Detailed measurement of the inhibitory effect of am8γCD towards K30 polysaccharide translocation was then performed. […] The gel was stained to generate fluorescence signals that correspond to the sugar quantity. […]
The fluorescent intensities of the gels were measured by using the Bio-Rad Universal Hood II. […] The fluorescence intensity of each lane was processed with the Plot Lane function after illumination of the gel with UV light at 302 nm and fluorescent data collection emissions going through an Amber Filter (548-630 nm).

[2] = molecular target: mutant Wza ΔP106-A107 (Escherichia coli, UniProt Q9X4B7, DEL106-107); experiment: Single-channel electrical recording, mutant Wza ΔP106-A107; assay type: binding, E. coli; settings: n = 3, read-out: Dissociation constant (Kd) with mutant Wza pore
[3] = molecular target: Wza Y110G/K375C (Escherichia coli, UniProt Q9X4B7, K375C/Y110G); experiment: Single-channel electrical recording, blockers against mutant Wza Y110G/K375C; assay type: binding, E. coli
Procedure: The Wza pore was opened by replacing the tyrosines at position 110 that line the narrowest region of the lumen with glycine. To confirm that the currents observed indeed arose from the mutant pore, a cysteine was introduced in the α-helix barrel (Y110G/K375C) and would therefore yield a characteristic reversible blockade when derivatized with a suitable thiol-specific reagent.
The unitary conductance of the Y110G/K375C pore was determined as for wt-Wza, by measuring stepwise-insertion using the same technique referenced above. The mean open current of Y110G/K375C was determined to be +85±14.1 pA (+50 mV, n=31), corresponding to 1.70±0.28 nS (+50 mV, n=31) in conductance.
(§1) Thirteen commercial cyclodextrins (CDs) were tested for their ability to block WT-Wza and the mutant Y110G/K375C (Table 1) including, neutral, negatively charged or positively charged cyclodextrins. Testing was carried out using electrical channel recording in high salt buffer (2M KCl, 5 mM HEPES, 100 μM EDTA, 200 μM DTT) at pH 7.5.

[4] = molecular target: WT Wza (Escherichia coli, UniProt Q9X4B7); experiment: Single-channel electrical recording, blockers against wt-Wza in planar lipid bilayers; assay type: binding, E. coli; settings: 2M KCl, 5 mM HEPES, 100 μM EDTA, 200 μM DTT, pH 7.5
Procedure: The Wt Wza transporter was tested in single-channel recording, in accordance with the procedures of Naismith (Nature 2006, 444, 226-229) for its ability to form pores in planar lipid bilayers. Sequential insertions of channels in a single orientation were used to measure the conductance of a single channel because more than one channel could insert simultaneously during the first introduction, especially when protein molecules have not properly diffused yet. Repetition of experiments helped to verify conductance of a single channel. […] After collection of 37 insertions of wt Wza channel, the current of a single channel of wt Wza in 2 M KCl buffer was determined to be 1.89±0.01 pA (n=37) on average, corresponding to 18.9±0.1 pS (n=37) in conductance.
as §1

## NC[C@H]1O[C@@H]2O[C@H]3[C@H](O)[C@@H](O)[C@@H](O[C@H]4[C@H](O)[C@@H](O)[C@@H](O[C@H]5[C@H](O)[C@@H](O)[C@@H](O[C@H]6[C@H](O)[C@@H](O)[C@@H](O[C@H]7[C@H](O)[C@@H](O)[C@@H](O[C@H]8[C@H](O)[C@@H](O)[C@@H](O[C@H]9[C@H](O)[C@@H](O)[C@@H](O[C@H]1[C@H](O)[C@H]2O)O[C@@H]9CN)O[C@@H]8CN)O[C@@H]7CN)O[C@@H]6CN)O[C@@H]5CN)O[C@@H]4CN)O[C@@H]3CN [No. 12, Octacis (6-amino-6-deoxy)-γ-cyclodextrin]
[1]; 1 mM, E. coli strain E69, staining assay
  Inhibition of K30 polysaccharide transport compared with am7βCD and am6αCD: much stronger
[1]; E. coli strain E69, increasing am8γCD
  LPS fluorescent intensity at saturation: around 2 times that of the control
[1]; Escherichia coli, read-out: IC50 from concentration dependence of the CPS band intensity
  IC50: 51.2 ± 1 µM
[2]; ΔP106-A107, 300 mM KCl, 5 mM HEPES, pH 7.5, +5 mV
  Kd: 0.044 ± 0.025 µM
[2]; ΔP106-A107, 2M KCl buffer pH 7.5, +3 mV
  Kd: 7.8 ± 5.2 µM
[3]; Kd, interaction with mutant Wza, Y110G/K375C, +3 mV, n = 3, 2M KCl buffer pH 7.5
  Kd: 12.3 µM and 12 µM
[3]; Y110G/K375C, 2M KCl, 5 mM HEPES, 100 μM EDTA, 200 μM DTT, pH 7.5
  Interaction with mutant Wza: not observed^c
[3]; at different voltages
  Binding strength relative to am7βCD: ≥ 10 times
[4]
  Interaction with WT Wza: not observed
